Consider 37 compounds from patent US11180483B2, “Substituted reverse pyrimidine Bmi-1 inhibitors” (PTC Therapeutics, Inc., priority 2012, dated 2021).

The assay relates to Bmi-1. In words: Sandwich ELISA Assay (Bmi-1 ELISA) in HT-1080 cells. Type of assay: cell-based. A digest of the protocol: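 Bmi-1 in lysates was measured by a three-antibody ELISA with TMB, OD450 minus OD570 reference, interpolated on a GST-tagged recombinant Bmi-1 standard curve, 0-8000 pg/mL. Lysates came from HT-1080 cells treated 40-48 h with compound, final DMSO 0.5%.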
In turn, `Cc1nc2ccccc2n1-c1nc(N)cc(Nc2ccc(Br)cc2)n1` [Cpd 212, N-(4-bromophenyl)-2-(2-methyl-1H-benzimidazol-1-yl)pyrimidine-4,6-diamine] registered a 50% effective concentration (EC50) of 10 to 100 nM.

As for `Cc1ccc(Nc2nc(-n3c(C)nc4cc(F)c(F)cc43)nc(N)c2F)cc1` [Cpd 213, 2-(5,6-difluoro-2-methyl-1H-benzimidazol-1-yl)-5-fluoro-N-(4-methylphenyl)pyrimidine-4,6-diamine], the EC50 is 1 to 10 nM.

For the compound `COc1ccc(Nc2nc(-n3c(C)nc4cc(F)c(F)cc43)nc(N)c2F)cc1` [Cpd 214, 2-(5,6-difluoro-2-methyl-1H-benzimidazol-1-yl)-5-fluoro-N-(4-methoxyphenyl)pyrimidine-4,6-diamine], the EC50 lay within 10 to 100 nM.

Compound `Cc1nc2cc(F)c(F)cc2n1-c1nc(N)c(F)c(Nc2ccc(Cl)cc2)n1` [Cpd 215, N-(4-chlorophenyl)-2-(5,6-difluoro-2-methyl-1H-benzimidazol-1-yl)-5-fluoropyrimidine-4,6-diamine] gave an EC50 of 100 to 3000 nM.

For the compound `COCc1nc2ccccc2n1-c1nc(N)c(F)c(Nc2ccc(OC(F)F)cc2)n1` [Cpd 216, N-[4-(difluoromethoxy)phenyl]-5-fluoro-2-[2-(methoxymethyl)-1H-benzimidazol-1-yl]pyrimidine-4,6-diamine], the EC50 lay in the range of 10 to 100 nM.

`COCc1nc2ccccc2n1-c1nc(N)c(F)c(Nc2ccc(C)cc2)n1` [Cpd 217, 5-fluoro-2-[2-(methoxymethyl)-1H-benzimidazol-1-yl]-N-(4-methylphenyl)pyrimidine-4,6-diamine] yielded a half-maximal effective concentration (EC50) of 10 to 100 nM.

`COCc1nc2ccccc2n1-c1nc(N)c(F)c(Nc2ccc(OC)cc2)n1` [Cpd 218, 5-fluoro-2-[2-(methoxymethyl)-1H-benzimidazol-1-yl]-N-(4-methoxyphenyl)pyrimidine-4,6-diamine] showed an EC50 of 1 to 10 nM.

On to `COCc1nc2ccccc2n1-c1nc(N)c(F)c(Nc2ccc(Cl)cc2)n1` [Cpd 219, N-(4-chlorophenyl)-5-fluoro-2-[2-(methoxymethyl)-1H-benzimidazol-1-yl]pyrimidine-4,6-diamine], for which the 50% effective concentration (EC50) lay within 100 to 3000 nM.

For the compound `COCc1nc2ccccc2n1-c1nc(N)c(F)c(Nc2ccc(C(F)(F)F)cc2)n1` [Cpd 220, 5-fluoro-2-[2-(methoxymethyl)-1H-benzimidazol-1-yl]-N-[4-(trifluoromethyl)phenyl]pyrimidine-4,6-diamine], the EC50 lay in the range of 10 to 100 nM.

As to `Cc1nc2ccccc2n1-c1nc(N)cc(Nc2ccc(OC(F)(F)F)cc2)n1` [Cpd 221, 2-(2-methyl-1H-benzimidazol-1-yl)-N-[4-(trifluoromethoxy)phenyl]pyrimidine-4,6-diamine], the EC50 was in the range of 100 to 3000 nM.

In turn, `Cc1nc2ccc(C#N)cc2n1-c1nc(N)c(F)c(Nc2ccc(C(F)(F)F)cc2)n1` [Cpd 222, 1-(4-amino-5-fluoro-6-{[4-(trifluoromethyl)phenyl]amino}pyrimidin-2-yl)-2-methyl-1H-benzimidazole-6-carbonitrile] gave a concentration for a half-maximal effect (EC50) of 100 to 3000 nM.

Compound `Cc1nc2ccc(C#N)cc2n1-c1nc(N)c(F)c(Nc2ccc(OC(F)F)cc2)n1` [Cpd 223, 1-(4-amino-6-{[4-(difluoromethoxy)phenyl]amino}-5-fluoropyrimidin-2-yl)-2-methyl-1H-benzimidazole-6-carbonitrile] had a concentration giving a half-maximal response (EC50) of 100 to 3000 nM.

With `Cc1ccc(Nc2nc(-n3c(C)nc4ccc(C#N)cc43)nc(N)c2F)cc1` [Cpd 224], the EC50 is 10 to 100 nM.

On to `COc1ccc(Nc2nc(-n3c(C)nc4ccc(C#N)cc43)nc(N)c2F)cc1` [Cpd 225, 1-{4-amino-5-fluoro-6-[(4-methoxyphenyl)amino]pyrimidin-2-yl}-2-methyl-1H-benzimidazole-6-carbonitrile], for which the EC50 was in the range of 10 to 100 nM.

Take `Cc1nc2cc(C#N)ccc2n1-c1nc(N)c(F)c(Nc2ccc(OC(F)F)cc2)n1` [Cpd 226, 1-(4-amino-6-{[4-(difluoromethoxy)phenyl]amino}-5-fluoropyrimidin-2-yl)-2-methyl-1H-benzimidazole-5-carbonitrile]: the concentration giving a half-maximal response (EC50) was 100 to 3000 nM.

`Cc1ccc(Nc2nc(-n3c(C)nc4cc(C#N)ccc43)nc(N)c2F)cc1` [Cpd 227, 1-{4-amino-5-fluoro-6-[(4-methylphenyl)amino]pyrimidin-2-yl}-2-methyl-1H-benzimidazole-5-carbonitrile] registered a concentration giving a half-maximal response (EC50) of 10 to 100 nM.

As to `COc1ccc(Nc2nc(-n3c(C)nc4cc(C#N)ccc43)nc(N)c2F)cc1` [Cpd 228], the EC50 is 10 to 100 nM.

The compound `Cc1nc2cc(C#N)ccc2n1-c1nc(N)c(F)c(Nc2ccc(C(F)(F)F)cc2)n1` [Cpd 229, 1-(4-amino-5-fluoro-6-{[4-(trifluoromethyl)phenyl]amino}pyrimidin-2-yl)-2-methyl-1H-benzimidazole-5-carbonitrile] registered an EC50 of 100 to 3000 nM.

As to `Cc1nc2cc(C#N)ccc2n1-c1nc(N)c(F)c(Nc2ccc(Cl)cc2)n1` [Cpd 230, 1-{4-amino-6-[(4-chlorophenyl)amino]-5-fluoropyrimidin-2-yl}-2-methyl-1H-benzimidazole-5-carbonitrile], the EC50 lay in the range of 100 to 3000 nM.

In turn, `Cc1nc2ccc([N+](=O)[O-])cc2n1-c1nc(N)c(F)c(Nc2ccc(OC(F)F)cc2)n1` [Cpd 231, N-[4-(difluoromethoxy)phenyl]-5-fluoro-2-(2-methyl-6-nitro-1H-benzimidazol-1-yl)pyrimidine-4,6-diamine] returned a concentration giving a half-maximal response (EC50) of 100 to 3000 nM.

With `Cc1ccc(Nc2nc(-n3c(C)nc4ccc([N+](=O)[O-])cc43)nc(N)c2F)cc1` [Cpd 232, 5-fluoro-2-(2-methyl-6-nitro-1H-benzimidazol-1-yl)-N-(4-methylphenyl)pyrimidine-4,6-diamine], the concentration for a half-maximal effect (EC50) was 10 to 100 nM.

Compound `COc1ccc(Nc2nc(-n3c(C)nc4ccc([N+](=O)[O-])cc43)nc(N)c2F)cc1` [Cpd 233, 5-fluoro-N-(4-methoxyphenyl)-2-(2-methyl-6-nitro-1H-benzimidazol-1-yl)pyrimidine-4,6-diamine] gave a 50% effective concentration (EC50) of 10 to 100 nM.

In turn, `Cc1nc2ccccc2n1-c1nc(N)cc(Nc2ccc(OC(F)F)cc2)n1` [Cpd 234, N-[4-(difluoromethoxy)phenyl]-2-(2-methyl-1H-benzimidazol-1-yl)pyrimidine-4,6-diamine] gave a concentration for a half-maximal effect (EC50) of 10 to 100 nM.

`Cc1nc2ccccc2n1-c1nc(N)cc(Nc2ccc(OC(F)F)c(F)c2)n1` [Cpd 235, N-[4-(difluoromethoxy)-3-fluorophenyl]-2-(2-methyl-1H-benzimidazol-1-yl)pyrimidine-4,6-diamine] displayed a concentration for a half-maximal effect (EC50) of 10 to 100 nM.

Consider `Cc1nc2ccc([N+](=O)[O-])cc2n1-c1nc(N)c(F)c(Nc2ccc(C(F)(F)F)cc2)n1` [Cpd 236, 5-fluoro-2-(2-methyl-6-nitro-1H-benzimidazol-1-yl)-N-[4-(trifluoromethyl)phenyl]pyrimidine-4,6-diamine], for which the EC50 fell in the range of 100 to 3000 nM.

With `Cc1nc2c(F)cc(F)cc2n1-c1nc(N)c(F)c(Nc2ccc(Cl)cc2)n1` [Cpd 237, N-(4-chlorophenyl)-2-(4,6-difluoro-2-methyl-1H-benzimidazol-1-yl)-5-fluoropyrimidine-4,6-diamine], the half-maximal effective concentration (EC50) lay within 10 to 100 nM.

`Cc1nc2c(F)cc(F)cc2n1-c1nc(N)c(F)c(Nc2ccc(OC(F)(F)F)cc2)n1` [Cpd 238, 2-(4,6-difluoro-2-methyl-1H-benzimidazol-1-yl)-5-fluoro-N-[4-(trifluoromethoxy)phenyl]pyrimidine-4,6-diamine] gave a concentration giving a half-maximal response (EC50) of 100 to 3000 nM.

`COc1ccc(Nc2nc(-c3c(C)nn4ccccc34)nc(N)c2F)cc1` [Cpd 239, 5-fluoro-N-(4-methoxyphenyl)-2-(2-methylpyrazolo[1,5-a]pyridin-3-yl)pyrimidine-4,6-diamine]: the EC50 was in the range of 10 to 100 nM.

Turning to `Cc1nc2c(F)cc(F)cc2n1-c1nc(N)c(F)c(Nc2ccc3c(c2)OCO3)n1` [Cpd 240, N-(1,3-benzodioxol-5-yl)-2-(4,6-difluoro-2-methyl-1H-benzimidazol-1-yl)-5-fluoropyrimidine-4,6-diamine], the concentration giving a half-maximal response (EC50) lay within 1 to 10 nM.

In turn, `Cc1ccc(Nc2nc(-n3c(C)nc4c(F)cc(F)cc43)nc(N)c2F)cc1` [Cpd 241, 2-(4,6-difluoro-2-methyl-1H-benzimidazol-1-yl)-5-fluoro-N-(4-methylphenyl)pyrimidine-4,6-diamine] showed an EC50 of 10 to 100 nM.

`COc1ccc(Nc2nc(-n3c(C)nc4c(F)cc(F)cc43)nc(N)c2F)cc1` [Cpd 242, 2-(4,6-difluoro-2-methyl-1H-benzimidazol-1-yl)-5-fluoro-N-(4-methoxyphenyl)pyrimidine-4,6-diamine] returned an EC50 of 1 to 10 nM.

For the compound `Cc1nc2cc(F)cc(F)c2n1-c1nc(N)c(F)c(Nc2ccc(C(F)(F)F)cc2)n1` [Cpd 243, 2-(5,7-difluoro-2-methyl-1H-benzimidazol-1-yl)-5-fluoro-N-[4-(trifluoromethyl)phenyl]pyrimidine-4,6-diamine], the EC50 lay within 10 to 100 nM.

The compound `COc1ccc2nc(C)n(-c3nc(N)c(F)c(Nc4ccc(C(F)(F)F)cc4)n3)c2c1` [Cpd 244, 5-fluoro-2-(6-methoxy-2-methyl-1H-benzimidazol-1-yl)-N-[4-(trifluoromethyl)phenyl]pyrimidine-4,6-diamine] came in with an EC50 of 10 to 100 nM.

With `COc1ccc2nc(C)n(-c3nc(N)c(F)c(Nc4ccc(Cl)cc4)n3)c2c1` [Cpd 245, N-(4-chlorophenyl)-5-fluoro-2-(6-methoxy-2-methyl-1H-benzimidazol-1-yl)pyrimidine-4,6-diamine], the EC50 fell in the range of 10 to 100 nM.

`COc1ccc2nc(C)n(-c3nc(N)c(F)c(Nc4ccc(OC(F)(F)F)cc4)n3)c2c1` [Cpd 246, 5-fluoro-2-(6-methoxy-2-methyl-1H-benzimidazol-1-yl)-N-[4-(trifluoromethoxy)phenyl]pyrimidine-4,6-diamine]: the EC50 was in the range of 10 to 100 nM.

`COc1ccc2nc(C)n(-c3nc(N)c(F)c(Nc4ccc(OC(F)F)cc4)n3)c2c1` [Cpd 247, N-[4-(difluoromethoxy)phenyl]-5-fluoro-2-(6-methoxy-2-methyl-1H-benzimidazol-1-yl)pyrimidine-4,6-diamine] registered an EC50 of 10 to 100 nM.

In turn, `COc1ccc2nc(C)n(-c3nc(N)c(F)c(Nc4ccc(C)cc4)n3)c2c1` [Cpd 248, 5-fluoro-2-(6-methoxy-2-methyl-1H-benzimidazol-1-yl)-N-(4-methylphenyl)pyrimidine-4,6-diamine] showed a concentration giving a half-maximal response (EC50) of 10 to 100 nM.
